26 compounds from US20230227405A1, “5-OXOPYRROLIDINE-3-CARBOXAMIDES AS NAV1.8 INHIBITORS” (MERCK SHARP & DOHME CORP., priority 2020, published 2023) can be followed below.

For this assay, the target named is T1, human Nav1.8 (Homo sapiens, UniProt Q9Y5Y9).
T1 construct: expressed in transfected cells
Briefly: Qube® automated patch-clamp assay, Nav1.8. Type of assay: cell-based. As to conditions: human Nav1.8 stably expressed in HEK 293 cells; whole-cell voltage clamp, room temperature; read-out: IC50 values (nM) for Examples in the Nav1.8 Qube® Assay. On the procedure: Compounds were tested on human Nav1.8 and Nav1.5 channels stably expressed in human embryo kidney (HEK) 293 cells. Sodium current measurements on Qube® were conducted as follows: automated 384-well patch-clamp assays on the Qube® platform (Sophion Biosciences) were used to measure the inhibition of sodium flow through human Nav1.8 and Nav1.5 channels. Whole-cell voltage-clamp recordings were performed in QChips® (Sophion Biosciences) at room temperature. Nav1.8 current measurements on Qube® were obtained as follows: Nav1.8 currents were elicited with a 10 second 1 Hertz (Hz) pulse train from a holding potential of −90 millivolts (mV), delivered to the cells once per minute in the control condition (DMSO only) and after compound addition. The 1 hertz pulse train stimulation consisted of ten test pulses to 10 millivolt (mV) for 20 milliseconds (ms), each of which was followed by a 980 millisecond repolarization to −67 millivolts. At the end of the 10 second pulse train stimulation, a 5 second hyperpolarization step to −100 millivolt (mV) was used to recover Nav1.8 from fast inactivation. The peak currents elicited by the 1st and 10th test pulses were used to determine IC50 values for resting inhibition and inactivated state inhibition. Nav1.5 current measurements on Qube® were obtained as follows: Nav1.5 currents were elicited with a 20 second 3 Hertz pulse train in the control condition (DMSO only) and after compound addition. The pulse train consisted of sixty 20 millisecond test pulses to 0 millivolt from a holding potential of −80 millivolt (mV). The average peak currents elicited by the last 3 test pulses were used to determine IC50 values for Nav1.5 inhibition.
The following buffers were used for the Qube® recordings: External buffer for Nav1.8 Qube® recording: 150 NaCl, 2 CaCl2, 5 KCl, 1 Mg Cl2, 10 HEPES, 12 Dextrose; External buffer for Qube® Nav1.5 recording: 120 N-Methyl-D-Glucamine, 40 NaCl, 1 KCl, 2.7 CaCl2, 5 HEPES, 0.5 MgCl2; and Internal buffer for Qube® recording: 120 CsF, 30 CsCl, 10 EGTA, 5 HEPES, 5 NaF, 2 MgCl2.
For all Qube® experiments offline analysis was used to determine percent inhibition as a function of drug concentration. IC50 values were determined by fitting to the Hill equation.

SMILES strings stand for the structures.

T1 sequence (Q9Y5Y9 whole entry): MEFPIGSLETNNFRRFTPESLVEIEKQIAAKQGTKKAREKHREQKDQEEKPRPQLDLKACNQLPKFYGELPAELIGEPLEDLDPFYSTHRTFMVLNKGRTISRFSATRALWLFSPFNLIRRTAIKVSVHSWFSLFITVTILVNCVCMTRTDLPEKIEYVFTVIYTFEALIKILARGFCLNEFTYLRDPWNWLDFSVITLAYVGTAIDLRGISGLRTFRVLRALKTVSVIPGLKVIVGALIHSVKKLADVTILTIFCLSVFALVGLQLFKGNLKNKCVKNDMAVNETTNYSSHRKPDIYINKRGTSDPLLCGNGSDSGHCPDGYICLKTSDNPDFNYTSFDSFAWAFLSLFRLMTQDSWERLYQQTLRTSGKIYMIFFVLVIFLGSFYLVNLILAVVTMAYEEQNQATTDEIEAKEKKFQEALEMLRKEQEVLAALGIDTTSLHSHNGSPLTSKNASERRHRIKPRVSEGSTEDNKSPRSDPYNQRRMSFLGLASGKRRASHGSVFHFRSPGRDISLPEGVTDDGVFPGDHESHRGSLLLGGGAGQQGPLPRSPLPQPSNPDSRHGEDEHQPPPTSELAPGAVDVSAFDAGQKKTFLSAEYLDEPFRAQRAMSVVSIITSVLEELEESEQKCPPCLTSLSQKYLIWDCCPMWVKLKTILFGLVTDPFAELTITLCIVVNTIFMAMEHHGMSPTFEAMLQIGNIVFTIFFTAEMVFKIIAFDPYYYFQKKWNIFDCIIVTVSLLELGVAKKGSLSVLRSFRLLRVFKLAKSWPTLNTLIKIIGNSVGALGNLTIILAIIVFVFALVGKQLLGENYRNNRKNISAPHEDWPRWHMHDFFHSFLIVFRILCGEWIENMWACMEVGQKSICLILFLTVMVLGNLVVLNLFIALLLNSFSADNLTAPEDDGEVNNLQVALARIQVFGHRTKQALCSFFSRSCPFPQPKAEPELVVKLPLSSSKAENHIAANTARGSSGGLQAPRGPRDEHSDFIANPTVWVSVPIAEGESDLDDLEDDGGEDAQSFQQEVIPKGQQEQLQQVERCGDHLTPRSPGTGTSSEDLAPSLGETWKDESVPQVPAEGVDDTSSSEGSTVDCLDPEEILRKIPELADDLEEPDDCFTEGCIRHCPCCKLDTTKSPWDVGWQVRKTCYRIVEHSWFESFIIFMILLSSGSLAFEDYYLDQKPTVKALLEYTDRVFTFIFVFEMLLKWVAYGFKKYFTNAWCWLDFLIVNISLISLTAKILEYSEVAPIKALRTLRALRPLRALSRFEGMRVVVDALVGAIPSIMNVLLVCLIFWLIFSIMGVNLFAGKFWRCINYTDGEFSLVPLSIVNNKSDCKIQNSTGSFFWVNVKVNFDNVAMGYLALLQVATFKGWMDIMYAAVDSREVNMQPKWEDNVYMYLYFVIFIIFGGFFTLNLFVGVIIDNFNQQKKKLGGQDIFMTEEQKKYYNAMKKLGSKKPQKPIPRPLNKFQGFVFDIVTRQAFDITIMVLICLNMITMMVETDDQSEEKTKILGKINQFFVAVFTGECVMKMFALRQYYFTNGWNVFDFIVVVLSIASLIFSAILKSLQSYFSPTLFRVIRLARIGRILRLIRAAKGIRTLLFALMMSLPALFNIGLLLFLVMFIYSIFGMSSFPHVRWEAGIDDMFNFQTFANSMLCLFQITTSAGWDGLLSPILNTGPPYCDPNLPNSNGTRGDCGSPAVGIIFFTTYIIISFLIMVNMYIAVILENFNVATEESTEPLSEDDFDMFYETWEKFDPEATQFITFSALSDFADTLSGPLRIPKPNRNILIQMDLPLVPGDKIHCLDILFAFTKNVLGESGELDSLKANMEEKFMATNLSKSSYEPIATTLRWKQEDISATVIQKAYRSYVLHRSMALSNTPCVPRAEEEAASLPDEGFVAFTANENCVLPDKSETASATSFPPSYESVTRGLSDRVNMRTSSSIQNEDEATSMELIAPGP

Turning to `O=C1C[C@H](C(=O)NC(c2ccc(Cl)cc2)c2ccc(F)c(Cl)c2)CN1` (mixture of isomers) [Example 1B, (S—N—((R and S)-(3-chloro-4-fluorophenyl)(4-chlorophenyl)methyl)-5-oxopyrrolidine-3-carboxamide], the IC50 is 13 nM. Next, `O=C1C[C@H](C(=O)NC(c2ccc(Cl)cc2)c2ccc(F)c(Cl)c2)CN1` (single isomer, unassigned) [Example 1A, (S—N—((R or S)-(3-chloro-4-fluorophenyl)(4-chlorophenyl)methyl)-5-oxopyrrolidine-3-carboxamide]: 3.4 nM; `O=C1C[C@H](C(=O)NC(c2ccc(Cl)cc2)c2ccc(F)c(C(F)(F)F)c2)CN1` (single isomer, unassigned) [Example 11A, (S)-N-((R or S)-(4-chlorophenyl)(4-fluoro-3-(trifluoromethyl)phenyl)methyl)-5-oxopyrrolidine-3-carboxamide]: 2.6 nM. Under `O=C1C[C@H](C(=O)NC(c2ccc(Cl)cc2)c2ccc(F)c(C(F)(F)F)c2)CN1` (single isomer, unassigned) [Example 11B, (S)-N-((R or S)-(4-chlorophenyl)(4-fluoro-3-(trifluoromethyl)phenyl)methyl)-5-oxopyrrolidine-3-carboxamide] stands 17 nM; under `O=C1C[C@H](C(=O)NC(c2ccc(Cl)cc2)c2ccc(OC(F)(F)F)cc2)CN1` (single isomer, unassigned) [Example 12A, (S)-N-((R or S)-(4-chlorophenyl)(4-(trifluoromethoxy)phenyl)methyl)-5-oxopyrrolidine-3-carboxamide], 28 nM; under `O=C1C[C@H](C(=O)NC(c2ccc(Cl)cc2)c2ccc(OC(F)(F)F)cc2)CN1` (single isomer, unassigned) [Example 12B, (S)-N-((R or S)-(4-chlorophenyl)(4-(trifluoromethoxy)phenyl)methyl)-5-oxopyrrolidine-3-carboxamide], 4.1 nM. Next, `N#Cc1ccc(C(NC(=O)[C@@H]2CNC(=O)C2)c2ccc(F)c(Cl)c2)cc1` (single isomer, unassigned) [Example 13A, (S)-N-((R or S)-(3-chloro-4-fluorophenyl)(4-cyanophenyl)methyl)-5-oxopyrrolidine-3-carboxamide]: 139 nM; `N#Cc1ccc(C(NC(=O)[C@@H]2CNC(=O)C2)c2ccc(F)c(Cl)c2)cc1` (single isomer, unassigned) [Example 13B, (S)-N-((R or S)-(3-chloro-4-fluorophenyl)(4-cyanophenyl)methyl)-5-oxopyrrolidine-3-carboxamide]: 129 nM; `O=C1C[C@H](C(=O)NC(c2ccc(Cl)cc2)c2ccc(Cl)c(C(F)(F)F)c2)CN1` (single isomer, unassigned) [Example 14A, (S—N—((R or S)-(4-chloro-3-(trifluoromethyl)phenyl)(4-chlorophenyl)methyl)-5-oxopyrrolidine-3-carboxamide]: 1.2 nM.

Take `O=C1C[C@H](C(=O)NC(c2ccc(Cl)cc2)c2ccc(Cl)c(C(F)(F)F)c2)CN1` (single isomer, unassigned) [Example 14B, (S—N—((R or S)-(4-chloro-3-(trifluoro-methyl)phenyl)(4-chlorophenyl)methyl)-5-oxopyrrolidine-3-carboxamide]: the IC50 was determined as 9.4 nM.

Consider `O=C1C[C@H](C(=O)NC(c2cnc(C(F)(F)F)c(Cl)c2)c2ccc(F)c(Cl)c2F)CN1` (single isomer, unassigned) [Example 15, (S—N—((R or S)-(3-chloro-2,4-difluorophenyl)(5-chloro-6-(trifluoromethyl)pyridin-3-yl)methyl)-5-oxopyrrolidine-3-carboxamide], for which the 50% inhibitory concentration (IC50) turned out to be 4.2 nM.

For the compound `O=C1C[C@H](C(=O)NC(c2ccc(F)c(Cl)c2F)[C@H]2C[C@H](C(F)(F)F)C2)CN1` (single isomer, unassigned) [Example 16, (S—N—((R or S)-(3-chloro-2,4-difluorophenyl)((trans)-3-(trifluoromethyl)cyclobutyl)methyl)-5-oxopyrrolidine-3-carboxamide], the 50% inhibitory concentration (IC50) was found to be 46 nM.

With `O=C1C[C@H](C(=O)NC(c2ccc(C(F)(F)F)cc2)c2ccc(F)c(Cl)c2)CN1` (single isomer, unassigned) [Example 17, (S—N—((R or S)-(3-chloro-4-fluorophenyl)(4-(trifluoromethyl)phenyl)methyl)-5-oxopyrrolidine-3-carboxamide], the IC50 worked out at 11 nM. Under `O=C1C[C@H](C(=O)NC(c2ccc(OC(F)(F)F)cc2)c2cccc(Cl)c2)CN1` (single isomer, unassigned) [Example 19A, (S)-N-((R or S)-(3-chlorophenyl)(4-(trifluoromethoxy)phenyl)methyl)-5-oxopyrrolidine-3-carboxamide] stands 16 nM. Under `O=C1C[C@H](C(=O)NC(c2ccc(OC(F)(F)F)cc2)c2cccc(Cl)c2)CN1` (single isomer, unassigned) [Example 19B, (S)-N-((R or S)-(3-chlorophenyl)(4-(trifluoromethoxy)phenyl)methyl)-5-oxopyrrolidine-3-carboxamide] stands 17 nM. Next, `O=C1C[C@H](C(=O)NC(c2ccc(F)c(Cl)c2)c2ccc(Cl)c(C(F)(F)F)n2)CN1` (single isomer, unassigned) [Example 20A, (S)-N-((R or S)-(3-chloro-4-fluorophenyl)(5-chloro-6-(trifluoromethyl)-pyridin-2-yl)methyl)-5-oxopyrrolidine-3-carboxamide]: 51 nM.

`O=C1C[C@H](C(=O)NC(c2ccc(F)c(Cl)c2)c2ccc(Cl)c(C(F)(F)F)n2)CN1` (single isomer, unassigned) [Example 20B, (S)-N-((R or S)-(3-chloro-4-fluorophenyl)(5-chloro-6-(trifluoromethyl)-pyridin-2-yl)methyl)-5-oxopyrrolidine-3-carboxamide]: the IC50 came out at 2.9 nM. Turning to `CC1(C)CC(C(NC(=O)[C@@H]2CNC(=O)C2)c2ccc(F)c(Cl)c2F)C1` (single isomer, unassigned) [Example 21A, (S—N—((R or S)-(3-chloro-2,4-difluorophenyl)(3,3-dimethylcyclobutyl)methyl)-5-oxopyrrolidine-3-carboxamide], the IC50 came out at 2220 nM. Next, `CC1(C)CC(C(NC(=O)[C@@H]2CNC(=O)C2)c2ccc(F)c(Cl)c2F)C1` (single isomer, unassigned) [Example 21B, (S—N—((R or S)-(3-chloro-2,4-difluorophenyl)(3,3-dimethylcyclobutyl)methyl)-5-oxopyrrolidine-3-carboxamide]: 17 nM; `CC1C(=O)NCC1C(=O)NC(c1ccc(Cl)cc1)c1ccc(Cl)cc1` (single isomer, unassigned) [Example 27A, (3(R or S),4(R or S)—N-(bis(4-chlorophenyl)methyl)-4-methyl-5-oxopyrrolidine-3-carboxamide]: 7460 nM; `CC1C(=O)NCC1C(=O)NC(c1ccc(Cl)cc1)c1ccc(Cl)cc1` (single isomer, unassigned) [Example 27B, (3(R or S),4(R or S)—N-(bis(4-chlorophenyl)methyl)-4-methyl-5-oxopyrrolidine-3-carboxamide]: 277 nM.

For the compound `CC1C(=O)NCC1C(=O)NC(c1ccc(Cl)cc1)c1ccc(Cl)cc1` (single isomer, unassigned) [Example 27C, (3(R or S),4(R or S)—N-(bis(4-chlorophenyl)methyl)-4-methyl-5-oxopyrrolidine-3-carboxamide], the IC50 is 3480 nM. As to `CC1C(=O)NCC1C(=O)NC(c1ccc(Cl)cc1)c1ccc(Cl)cc1` (single isomer, unassigned) [Example 27D, (3(R or S),4(R or S)—N-(bis(4-chlorophenyl)methyl)-4-methyl-5-oxopyrrolidine-3-carboxamide], the IC50 stood at 7650 nM.

Consider `N#Cc1cccc(C(NC(=O)[C@@H]2CNC(=O)C2)c2cccc(Cl)c2)c1` (stereo partly drawn) [Example 2, (3S)-N-((3-chlorophenyl)(3-cyanophenyl)methyl)-5-oxopyrrolidine-3-carboxamide], for which the IC50 was 820 nM. On to `O=C1C[C@H](C(=O)NC(c2ccc(Cl)cc2)c2ccc(C3CC3)cc2)CN1` (stereo partly drawn) [Example 3, (3S)-N-((4-chlorophenyl)(4-cyclopropylphenyl)methyl)-5-oxopyrrolidine-3-carboxamide], for which the IC50 was 186 nM. Under `CC(C)c1ccc(C(NC(=O)[C@@H]2CNC(=O)C2)c2ccc(Cl)cc2)cc1` (stereo partly drawn) [Example 4, (3S)-N-((4-chlorophenyl)(4-isopropylphenyl)methyl)-5-oxopyrrolidine-3-carboxamide] stands 108 nM.
